Consider three substances from US12692274B2, “Tetrahydroisoquinoline derivatives for the treatment of red blood disorders and inflammatory diseases” (Sanofi, priority 2020, dated 2026).

For this series the following is noted: the molecule shown is the open-chain precursor, rcm bond.

Where two headings read alike, the source gives them in different places.

In the case of “amide of 7-(3-methoxy-3-oxo-1-(2-(pent-4-en-1-yloxy)pyrimidin-5-yl)propyl)-1,2,3,4-tetrahydroisoquinolin-2-ium chloride with 4-vinylbenzoic acid”, where the note is “21-membered ring, Grubbs catalyst (General procedure 15)”, the ring closure, crude yield is 20%.
Under “22-membered ring, Grubbs catalyst (General procedure 15)”, “amide of benzyl 3-(6-(pent-4-en-1-yloxy)pyridin-3-yl)-3-(1,2,3,4-tetrahydroisoquinolin-7-yl)propanoate with 1-methyl-5-vinyl-1H-pyrrolo[2,3-b]pyridine-2-carboxylic acid” registered a ring closure, crude yield of 51%.
Under “23-membered ring, Grubbs catalyst (General procedure 7)”, “amide of methyl 3-(1-(but-3-en-1-yl)-4-methyl-1H-benzo[d][1,2,3]triazol-5-yl)-3-(1,2,3,4-tetrahydroisoquinolin-7-yl)propanoate with 5-(but-3-en-1-yloxy)pyrazine-2-carboxylic acid” showed a ring closure, crude yield of 42%.
